In patent publication US12465050B2, “Compositions comprising a pyridine carboxylate herbicide and protoporphyrinogen oxidase (protox) inhibitor herbicides” (priority 2018, dated 2025):

Experiments:
Type in all cases: in vivo
[1] = tested on: Viola tricolor (wild pansy); assay: Greenhouse postemergence herbicidal effect on VIOTR
Description: (§1) Greenhouse Trial Methodology—Evaluation of Postemergence Herbicidal Effect
(§2) Seeds of the desired test plant species were planted in a 90:10% v/v (volume/volume) mixture of PRO-MIX® BX (Premier Tech Horticulture, Quakertown, Pa., USA) and PROFILE® GREENS GRADE™ (Profile Products LLC, Buffalo Grove, Ill., USA) planting mixture, which typically has a pH of 5.2 to 6.2 and an organic matter content of at least 50 percent, in plastic pots with a surface area of 103.2 square centimeters (cm^2). In some aspects or embodiments, to help ensure good germination and healthy plants, a fungicide treatment and/or other chemical or physical treatment was applied. The plants were grown for 7-36 days (d) in a greenhouse with an approximate 14-hour (h) photoperiod which was maintained at about 23° C. during the day and 22° C. during the night. Nutrients and water were added on a regular basis and supplemental lighting was provided with overhead metal halide 1000-Watt lamps as necessary. The plants were employed for testing when they reached the second or third true leaf stage.
(§3) Emulsifiable concentrates of each of each pyridine carboxylate herbicide (Compound A or Compound B) were prepared at 100 grams acid equivalent per liter (g ae/L). The emulsifiable concentrates also included a safener, cloquintocet mexyl, at 120 grams active ingredient per liter (g ai/L). An aliquot of each emulsifiable concentrate was placed in a 25 mL glass vial and diluted with an aqueous mixture of 1.25% (v/v) ACTIROB® B esterified rapeseed oil (Bayer Crop Science, Research Triangle Park, N.C., USA) or MSO® Concentrate with LECI-TECH® methylated soybean oil (Loveland Products, Loveland, Colo., USA) to obtain concentrated stock solutions at the highest application rate for each herbicide, based upon a 12 milliliter (mL) application volume at a rate of 187 liters per hectare (L/ha). The concentrated stock solutions were further diluted with an aqueous mixture of 1.25% v/v ACTIROB® B or MSO® Concentrate with LECI-TECH® to obtain stock solutions at reduced application rates for each herbicide. Spray solutions of the herbicide combinations (Compound A or Compound B plus PROTOX inhibitor herbicide) were prepared by adding weighed amounts or aliquots of the PROTOX inhibitor herbicides to the stock solutions of Compound A or Compound B to form 12-mL spray solutions in two-way combinations.
(§4) The spray solutions were applied to the plant material with an overhead Mandel track sprayer equipped with 8002E nozzles calibrated to deliver 187 L/ha over an application area of 0.503 square meters (m^2) at a spray height of 18 inches (43 centimeters (cm)) above the average plant canopy. Control plants were sprayed in the same manner with the solvent blank. All pyridine carboxylate herbicide (component a) application rates are given as “g ae/ha” and all PROTOX inhibitor herbicide (component b) application rates are given as “g ai/ha.”
(§5) The treated plants and control plants were placed in a greenhouse as described above and watered by sub-irrigation to prevent wash-off of the test compounds. After 20-22 d, the condition of the test plants as compared with that of the control plants was determined visually and scored on a scale of 0 to 100 percent where 0 corresponds to no injury and 100 corresponds to complete kill.

[2] = tested on: Cirsium arvense (Canadian thistle); assay: Greenhouse postemergence herbicidal effect on CIRAR
Description: as §1, §2, §3, §4, §5

Kochia scoparia (kochia) = assay: Greenhouse postemergence herbicidal effect on KCHSC
Description: as §1, §2, §3, §4, §5

[3] = tested on: Triticum aestivum (spring wheat); assay: Greenhouse postemergence phytotoxicity on crop TRZAS
Description: as §1, §2, §3, §4, §5

[4] = tested on: Polygonum convolvulus (wild buckwheat); assay: Greenhouse postemergence herbicidal effect on POLCO; conditions: Compound A 0, Oxyfluorfen 560 g/ha
Description: as §1, §2, §3, §4, §5

[5] = tested on: Salsola kali (Russian thistle); assay: Greenhouse postemergence herbicidal effect on SASKR; conditions: Compound A 0, Oxyfluorfen 560 g/ha
Description: as §1, §2, §3, §4, §5

[6] = tested on: Hordeum vulgare (spring barley); assay: Greenhouse postemergence phytotoxicity on crop HORVS; conditions: Compound A 0, Oxyfluorfen 560 g/ha
Description: as §1, §2, §3, §4, §5

[7] = tested on: Sinapis arvensis (wild mustard); assay: Greenhouse postemergence herbicidal effect on SINAR; conditions: Compound A 0, Oxyfluorfen 560 g/ha
Description: as §1, §2, §3, §4, §5

[8] = tested on: Brassica napus (winter rape); assay: Greenhouse postemergence herbicidal effect on BRSNW; conditions: Compound A 0, Oxyfluorfen 560 g/ha
Description: as §1, §2, §3, §4, §5

[9] = tested on: Matricaria chamomilla (wild chamomile); assay: Greenhouse postemergence herbicidal effect on MATCH; conditions: Compound A 0, Oxyfluorfen 560 g/ha
Description: as §1, §2, §3, §4, §5

[10] = tested on: Lamium purpureum (purple deadnettle); assay: Greenhouse postemergence herbicidal effect on LAMPU; conditions: Compound A 0, Oxyfluorfen 560 g/ha
Description: as §1, §2
as §3, with “combinations. […]” for “combinations.”
as §5

[11] = tested on: Capsella bursa-pastoris (shepherd's purse); assay: Greenhouse postemergence herbicidal effect on CAPBP; conditions: Compound A 0, Oxyfluorfen 560 g/ha
Description: as §1, §2
as §3, with “combinations. […]” for “combinations.”
as §5

[12] = tested on: Cyanus segetum (cornflower); assay: Greenhouse postemergence herbicidal effect on CENCY; conditions: Compound A 0, Oxyfluorfen 560 g/ha
Description: as §1, §2
as §3, with “combinations. […]” for “combinations.”
as §5

[13] = tested on: Viola arvensis (field violet); assay: Greenhouse postemergence herbicidal effect on VIOAR; conditions: Compound A 0, Oxyfluorfen 560 g/ha
Description: as §1, §2
as §3, with “combinations. […]” for “combinations.”
as §5

[14] = tested on: Stellaria media (chickweed); assay: Greenhouse postemergence herbicidal effect on STEME; conditions: Compound A 0, Oxyfluorfen 560 g/ha
Description: as §1, §2
as §3, with “combinations. […]” for “combinations.”
as §5

[15] = tested on: Matricaria inodora (scentless chamomile); assay: Greenhouse postemergence herbicidal effect on MATIN; conditions: Compound A 0, Oxyfluorfen 560 g/ha
Description: as §1, §2
as §3, with “combinations. […]” for “combinations.”
as §5

[16] = tested on: Anthemis arvensis (corn chamomile); assay: Greenhouse postemergence herbicidal effect on ANTAR; conditions: Compound A 0, Oxyfluorfen 560 g/ha
Description: as §1, §2
as §3, with “combinations. […]” for “combinations.”
as §5

[17] = tested on: Matricaria discoidea (pineapple weed); assay: Greenhouse postemergence herbicidal effect on MATMT; conditions: Compound A 0, Oxyfluorfen 560 g/ha
Description: as §1, §2
as §3, with “combinations. […]” for “combinations.”
as §5

[18] = tested on: Veronica persica (Persian speedwell); assay: Greenhouse postemergence herbicidal effect on VERPE; conditions: Compound A 0, Oxyfluorfen 560 g/ha
Description: as §1, §2
as §3, with “combinations. […]” for “combinations.”
as §5

[19] = tested on: Papaver rhoeas (common poppy); assay: Greenhouse postemergence herbicidal effect on PAPRH; conditions: Compound A 0, Oxyfluorfen 560 g/ha
Description: as §1, §2
as §3, with “combinations. […]” for “combinations.”
as §5

[20] = tested on: Veronica hederifolia (ivy-leaved speedwell); assay: Greenhouse postemergence herbicidal effect on VERHE; conditions: Compound A 0, Oxyfluorfen 560 g/ha
Description: as §1, §2
as §3, with “combinations. […]” for “combinations.”
as §5

[21] = tested on: Papaver rhoeas (herbicide-resistant poppy); assay: Greenhouse postemergence herbicidal effect on PAPRH-RES; conditions: Compound A 0, Oxyfluorfen 560 g/ha
Description: as §1, §2
as §3, with “combinations. […]” for “combinations.”
as §5

[22] = tested on: Triticum aestivum (winter wheat); assay: Greenhouse postemergence phytotoxicity on crop TRZAW; conditions: Compound A 0, Oxyfluorfen 560 g/ha
Description: as §1, §2
as §3, with “combinations. […]” for “combinations.”
as §5

[23] = tested on: Hordeum vulgare (winter barley); assay: Greenhouse postemergence phytotoxicity on crop HORVW; conditions: Compound A 0, Oxyfluorfen 560 g/ha
Description: as §1, §2
as §3, with “combinations. […]” for “combinations.”
as §5

[24] = tested on: Setaria faberi (giant foxtail); assay: Greenhouse postemergence herbicidal effect on SETFA
Description: as §1, §2, §3, §4, §5

[25] = tested on: Rumex obtusifolius (broad-leaf dock); assay: Greenhouse postemergence herbicidal effect on RUMOB
Description: as §1, §2, §3, §4, §5

[26] = tested on: Brassica napus (spring rape); assay: Greenhouse postemergence herbicidal effect on BRSNN
Description: as §1, §2, §3, §4, §5

[27] = tested on: Abutilon theophrasti (velvetleaf); assay: Greenhouse postemergence herbicidal effect on ABUTH; conditions: Compound A 0, Saflufenacil 11.2 g/ha
Description: as §1, §2
(§6) Emulsifiable concentrates of each of each pyridine carboxylate herbicide (Compound A or Compound B) were prepared at 100 grams acid equivalent per liter (g ae/L). The emulsifiable concentrates also included a safener, cloquintocet mexyl, at 120 grams active ingredient per liter (g ai/L). […]
as §5

[28] = tested on: Sorghum vulgare (sorghum); assay: Greenhouse postemergence herbicidal effect on SORVU; conditions: Compound A 0, Saflufenacil 11.2 g/ha
Description: as §1, §2, §6, §5

[29] = tested on: Cyperus esculentus (nutsedge); assay: Greenhouse postemergence herbicidal effect on CYPES; conditions: Compound A 0, Saflufenacil 11.2 g/ha
Description: as §1, §2, §6, §5

[30] = tested on: Amaranthus retroflexus (pigweed); assay: Greenhouse postemergence herbicidal effect on AMARE; conditions: Compound A 0, Saflufenacil 11.2 g/ha
Description: as §1, §2, §3, §4, §5

Zea mays (maize) = assay: Greenhouse postemergence phytotoxicity on crop ZEAMX; conditions: Compound A 0, Saflufenacil 11.2 g/ha
Description: as §1, §2, §6, §5

Avena fatua (wild oat) = assay: Greenhouse postemergence herbicidal effect on AVEFA; conditions: Compound A 0, Bifenox 90 g/ha
Description: as §1, §2, §6, §5

[31] = tested on: Echinochloa crus-galli (barnyard grass); assay: Greenhouse postemergence herbicidal effect on ECHCG; conditions: Compound A 0, Bifenox 90 g/ha
Description: as §1, §2, §6, §5

[32] = tested on: Digitaria sanguinalis (large crabgrass); assay: Greenhouse postemergence herbicidal effect on DIGSA; conditions: Compound A 0, Bifenox 90 g/ha
Description: as §1, §2, §6, §5

[33] = Compound A 0, Oxyfluorfen 560 g/ha
[34] = Compound B 7.5, Saflufenacil 0 g/ha
[35] = Compound B 10, Saflufenacil 0 g/ha
[36] = Compound A 0, Saflufenacil 11.2 g/ha
[37] = Compound B 0, Saflufenacil 1 g/ha

CCOc1cc(Oc2ccc(C(F)(F)F)cc2Cl)ccc1[N+](=O)[O-] [Oxyfluorfen, 2-chloro-1-(3-ethoxy-4-nitrophenoxy)-4-(trifluoromethyl)benzene, reference compound]
% visual injury, Obs [1, 33]: 60% | % visual injury, Obs [2, 33]: 35% | % visual injury, Obs (Kochia scoparia (kochia); [33]): 55% | % visual injury, Obs [3, 33]: 23% | % visual injury, Obs [4]: 80% | % visual injury, Obs [5]: 60% | % visual injury, Obs [6]: 70% | % visual injury, Obs [7]: 20% | % visual injury, Obs [8]: 20% | % visual injury, Obs [9]: 25% | % visual injury, Obs [10]: 10% | % visual injury, Obs [11]: 0% | % visual injury, Obs [12]: 15% | % visual injury, Obs [13]: 40% | % visual injury, Obs [14]: 0% | % visual injury, Obs [15]: 0% | % visual injury, Obs [16]: 5% | % visual injury, Obs [17]: 5% | % visual injury, Obs [18]: 20% | % visual injury, Obs [19]: 70% | % visual injury, Obs [20]: 5% | % visual injury, Obs [21]: 45% | % visual injury, Obs [22]: 20% | % visual injury, Obs [23]: 50%

C#CCOC(=O)c1nc(-c2ccc3cc[nH]c3c2F)c(F)c(N)c1Cl [Compound B, propargyl 4-amino-3-chloro-5-fluoro-6-(7-fluoro-1H-indol-6-yl)pyridine-2-carboxylate]
% visual injury, Obs [1, 34]: 10% | % visual injury, Obs [1, 35]: 40% | % visual injury, Obs [2, 34]: 45% | % visual injury, Obs [2, 35]: 45% | % visual injury, Obs [24, 34]: 70% | % visual injury, Obs [24, 35]: 55%

CC(C)N(C)S(=O)(=O)NC(=O)c1cc(-n2c(=O)cc(C(F)(F)F)n(C)c2=O)c(F)cc1Cl [Saflufenacil, 2-chloro-5-[3,6-dihydro-3-methyl-2,6-dioxo-4-(trifluoromethyl)-1(2H)-pyrimidinyl]-4-fluoro-N-[[methyl(1-methylethyl)-amino]sulfonyl]benzamide, reference compound]
% visual injury, Obs [25, 36]: 100% | % visual injury, Obs [1, 37]: 55% | % visual injury, Obs [2, 37]: 80% | % visual injury, Obs [26, 36]: 90% | % visual injury, Obs [24, 36]: 53% | % visual injury, Obs [24, 37]: 13% | % visual injury, Obs [27]: 98% | % visual injury, Obs [28]: 33% | % visual injury, Obs [29]: 28% | % visual injury, Obs [30]: 100% | % visual injury, Obs [3, 36]: 10% | % visual injury, Obs (Zea mays (maize)): 45%

COC(=O)c1cc(Oc2ccc(Cl)cc2Cl)ccc1[N+](=O)[O-] [Bifenox, methyl 5-(2,4-dichlorophenoxy)-2-nitrobenzoate, reference compound]
% visual injury, Obs ([25]; Compound A 0, Bifenox 90 g/ha): 0% | % visual injury, Obs ([1]; Compound A 0, Bifenox 90 g/ha): 0% | % visual injury, Obs ([2]; Compound A 0, Bifenox 90 g/ha): 18% | % visual injury, Obs ([26]; Compound A 0, Bifenox 90 g/ha): 23% | % visual injury, Obs ([24]; Compound A 0, Bifenox 90 g/ha): 18% | % visual injury, Obs (Kochia scoparia (kochia); Compound A 0, Bifenox 90 g/ha): 73% | % visual injury, Obs (Avena fatua (wild oat)): 5% | % visual injury, Obs [31]: 15% | % visual injury, Obs [32]: 25%
